Measurements taken from ChEMBL document CHEMBL5137082, “Discovery of a Novel Vascular Disrupting Agent Inhibiting Tubulin Polymerization and HDACs with Potent Antitumor Effects” (J Med Chem, 2022).
Calls of active or inactive are those of the source. The rule behind the calls is not given here.

Key:
Tubulin (Homo sapiens) [1] = biological target: T1, Tubulin (Homo sapiens) (UniProt P68371+Q9H4B7+P0DPH7+P68366+Q13509+Q71U36+P04350+Q3ZCM7+P07437+P68363+Q9BQE3+Q6PEY2+Q13885+Q9BVA1+Q9BUF5); assay: Inhibition of [3H]Colchicine binding to tubulin (unknown origin) at 1 uM measured after 2 hrs by scintillation counting method relative to control; assay type: protein-complex assay
HepG2 [2] = assay: Induction of apoptosis in human HepG2 cells assessed as early apoptotic cells at 30 nM incubated for 48 hrs by Annexin-V/PI-staining based flow cytometry (reference value: 4.61 +/- 0.46%); assay type: functional
HepG2 [3] = assay: Induction of apoptosis in human HepG2 cells assessed as early apoptotic cells at 15 nM incubated for 48 hrs by Annexin-V/PI-staining based flow cytometry (reference value: 4.61 +/- 0.46%); assay type: functional
[4] = Toxicity in ICR mouse allografted with mouse H22 cells assessed as diastolic blood pressure at 20 mg/kg, iv administered qd measured after 21 days; assay type: organism-based; details: in vivo, 504 h, time 21 day
[5] = Cardiotoxicity in ICR mouse allografted with mouse H22 cells assessed as effect on P wave at 20 mg/kg, iv administered qd measured after 21 days by ECG analysis; assay type: toxicity, organism-based; details: in vivo, 504 h, time 21 day
[6] = Toxicity in ICR mouse allografted with mouse H22 cells assessed as pathological changes in lung at 20 mg/kg, iv administered qd measured after 21 days by H and E staining based analysis; assay type: organism-based; details: in vivo, 504 h, time 21 day
[7] = Metabolic stability in mouse liver microsomes assessed as intrinsic clearance at 1 uM in presence of NADPH measured per gram protein up to 60 mins by LC-MS/MS analysis; assay type: ADME, Microsome; details: 1 h
[8] = Toxicity in ICR mouse allografted with mouse H22 cells assessed as pathological changes in liver at 20 mg/kg, iv administered qd measured after 21 days by H and E staining based analysis; assay type: organism-based; details: in vivo, 504 h, time 21 day
HepG2 [9] = assay: Induction of apoptosis in human HepG2 cells assessed as upregulation of Bad protein expression measured after 24 hrs by Western blot analysis; assay type: functional, cell-based; details: dose 7.5-30 nM, DDE = dose-dependent effect
MDA-MB-231 = assay: Inhibition of cell invasion in human MDA-MB-231 cells measured after 48 hrs by crystal violet staining based transwell assay; assay type: functional; details: dose 7.5-30 nM, DDE = dose-dependent effect
HepG2 [10] = assay: Induction of cell cycle arrest in human HepG2 cells assessed as accumulation G2 phase at 7.5 nM incubated for 48 hrs by propidium iodide staining based flow cytometry analysis (reference value: 23.55 +/- 0.29%); assay type: functional
HCT-116 = assay: Antiproliferative activity against human HCT-116 cells assessed as inhibition of cell growth measured after 72 hrs by MTT assay; assay type: functional, cell-based; details: HCT-116, 72 h
[11] = Antiproliferative activity against human HFL1 cells assessed as inhibition of cell growth measured after 72 hrs by MTT assay; assay type: toxicity, cell-based
[12] = Antiproliferative activity against HUVEC cells assessed as inhibition of cell growth measured after 24 hrs by MTT assay; assay type: toxicity, cell-based; details: human
[13] = Metabolic stability in mouse plasma assessed as compound remaining at 40 uM measured after 5 hrs by LC-MS/MS analysis (reference value: 100%); assay type: ADME, cell-free
HepG2 [14] = assay: Induction of apoptosis in human HepG2 cells assessed as necrotic cells at 7.5 nM incubated for 48 hrs by Annexin-V/PI-staining based flow cytometry (reference value: 1.43 +/- 0.26%); assay type: functional
HepG2 [15] = assay: Induction of apoptosis in human HepG2 cells assessed as downregulation of Bcl-2 protein expression measured after 24 hrs by Western blot analysis; assay type: functional, cell-based; details: dose 7.5-30 nM, DDE = dose-dependent effect
[16] = Toxicity in ICR mouse allografted with mouse H22 cells assessed as effect on body weight at 20 mg/kg, iv administered qd measured after 21 days; assay type: organism-based; details: in vivo, 504 h, time 21 day
HepG2 [17] = assay: Induction of morphological changes in human HepG2 cells assessed as nuclear fragmentation at 7.5 to 30 nM after 48 hrs by Hoechst 33258 staining based fluorescence microscopic analysis; assay type: functional, cell-based; details: dose 7.5-30 nM
HUVEC = assay: Antimigratory activity against HUVEC cells assessed as suppression of migration measured after 24 hrs by Wound healing assay; assay type: functional, cell-based; details: Homo sapiens, dose 7.5-30 nM, DDE = dose-dependent effect
Tubulin = assay: Inhibition of tubulin polymerization (unknown origin) preincubated for 15 mins followed by PEG and GTP addition measured after 30 mins by spectrophotometric method; assay type: protein-complex assay, Homo sapiens
HepG2 [18] = assay: Induction of morphological changes in human HepG2 cells assessed as chromatin aggregation at 7.5 to 30 nM after 48 hrs by Hoechst 33258 staining based fluorescence microscopic analysis; assay type: functional, cell-based; details: dose 7.5-30 nM
H22 = assay: Antitumor activity against mouse H22 cells allografted in ICR mouse assessed as inhibition of tumor growth at 20 mg/kg, iv administered qd for 21 days measured after 12 days; assay type: functional, organism-based; details: time 21.0 day
Tubulin (Homo sapiens) [19] = biological target: T1, Tubulin (Homo sapiens); assay: Inhibition of [3H]Colchicine binding to tubulin (unknown origin) at 5 uM measured after 2 hrs by scintillation counting method relative to control; assay type: protein-complex assay
Histone deacetylase 3 = Histone deacetylase 3 (Homo sapiens, UniProt O15379); assay: Inhibition of HDAC3 in human HepG2 cells assessed as increase in level of acetyl histone H3substrate incubated for 24 hrs by chemiluminescence based Western blotting analysis; assay type: cell-based; details: dose 0.03-0.3 µM
Mus musculus = assay: In vivo inhibition of HDAC in ICR mouse allografted with mouse H22 cells assessed as upregulation of acetyl-alpha tubulin expression at 20 mg/kg, iv qd administered for 21 days measured after 24 hrs by Western blot analysis; assay type: functional, organism-based; details: time 21.0 day
HepG2 [20] = assay: Induction of apoptosis in human HepG2 cells assessed as downregulation of Bcl-xL protein expression measured after 24 hrs by Western blot analysis; assay type: functional, cell-based; details: dose 7.5-30 nM, DDE = dose-dependent effect
HepG2 [21] = assay: Induction of cell cycle arrest in human HepG2 cells assessed as accumulation G1 phase at 7.5 nM incubated for 48 hrs by propidium iodide staining based flow cytometry analysis (reference value: 59.32 +/- 0.77%); assay type: functional
[22] = Toxicity in ICR mouse allografted with mouse H22 cells assessed as change in heart rate at 20 mg/kg, iv administered qd measured after 21 days; assay type: organism-based; details: in vivo, 504 h, time 21 day
HepG2 [23] = assay: Induction of apoptosis in human HepG2 cells assessed as viable cells at 7.5 nM incubated for 48 hrs by Annexin-V/PI-staining based flow cytometry (reference value: 91.44 +/- 0.74%); assay type: functional; details: read-out: Activity
HepG2 [24] = assay: Induction of G2/M phase cell cycle arrest in human HepG2 cells assessed as decrease in Cdc25c protein expression at 7.5 to 30 nM measured after 24 hrs by western blot analysis; assay type: functional, cell-based; details: dose 7.5-30 nM
Histone deacetylase 1 = Histone deacetylase 1 (Homo sapiens, UniProt Q13547); assay: Inhibition of HDAC1 in human HepG2 cells assessed as increase in level of acetyl histone H3substrate incubated for 24 hrs by chemiluminescence based Western blotting analysis; assay type: cell-based; details: dose 0.03-0.3 µM
Chain of Histone deacetylase 1 (Q13547 whole entry): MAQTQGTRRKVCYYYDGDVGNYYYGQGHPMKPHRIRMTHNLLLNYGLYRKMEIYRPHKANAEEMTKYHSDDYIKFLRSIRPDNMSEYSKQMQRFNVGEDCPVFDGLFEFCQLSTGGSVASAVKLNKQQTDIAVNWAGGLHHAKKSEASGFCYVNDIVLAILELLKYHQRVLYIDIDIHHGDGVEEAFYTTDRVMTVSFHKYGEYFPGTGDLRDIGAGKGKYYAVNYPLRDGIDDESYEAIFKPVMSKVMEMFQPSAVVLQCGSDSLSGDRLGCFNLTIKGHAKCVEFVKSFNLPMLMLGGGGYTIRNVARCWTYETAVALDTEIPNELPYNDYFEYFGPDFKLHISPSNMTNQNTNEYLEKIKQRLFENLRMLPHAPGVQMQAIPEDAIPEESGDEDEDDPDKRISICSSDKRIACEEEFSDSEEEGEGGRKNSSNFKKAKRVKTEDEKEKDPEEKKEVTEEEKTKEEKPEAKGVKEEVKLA

Chain of Histone deacetylase 3 (O15379 whole entry): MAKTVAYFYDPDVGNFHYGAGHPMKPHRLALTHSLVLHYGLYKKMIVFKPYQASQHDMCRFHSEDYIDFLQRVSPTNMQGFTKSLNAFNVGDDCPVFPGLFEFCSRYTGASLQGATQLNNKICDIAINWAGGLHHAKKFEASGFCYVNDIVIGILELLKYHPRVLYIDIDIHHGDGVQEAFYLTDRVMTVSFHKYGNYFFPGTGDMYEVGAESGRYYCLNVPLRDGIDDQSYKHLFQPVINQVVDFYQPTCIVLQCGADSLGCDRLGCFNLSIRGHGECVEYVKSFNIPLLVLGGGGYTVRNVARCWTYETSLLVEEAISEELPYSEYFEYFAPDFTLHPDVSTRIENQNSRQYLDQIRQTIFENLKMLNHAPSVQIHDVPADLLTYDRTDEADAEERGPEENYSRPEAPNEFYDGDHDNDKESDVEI

inhibition (Tubulin (Homo sapiens) [1]): 52.3%
CLH [7]: 41.7 mL/min/g
IC50 (HCT-116): 28 nM
Stability [13]: 16%
IC50 (Tubulin): 4060 nM
inhibition (Tubulin (Homo sapiens) [19]): 63.4%
inhibition (Histone deacetylase 3): Active
inhibition (Histone deacetylase 1): Active
SMILES: COc1ccc(CNC(=O)c2cc(F)ccc2N2CCOCC2)cc1/C=C/C(=O)NO
Activity (HepG2 [2]): 34.86%
Activity (HepG2 [3]): 26.84%
Activity [4]: Non-Toxic
Activity [5]: Non-Toxic
Activity [6]: Non-Toxic
Activity [8]: Non-Toxic
Activity (HepG2 [9]): Dde
inhibition (MDA-MB-231): Dde
Activity (HepG2 [10]): 24.42%
IC50 at 72 h [11]: 13 nM
IC50 at 24 h [12]: 271 nM
Activity (HepG2 [14]): 1.33%
Activity (HepG2 [15]): Dde
Activity [16]: Non-Toxic
Activity (HepG2 [17]): Active
Activity (HUVEC): Dde
Activity (HepG2 [18]): Active
Activity (H22): Active
inhibition (Mus musculus): Active
Activity (HepG2 [20]): Dde
Activity (HepG2 [21]): 54.77%
Activity [22]: Non-Toxic
viability at 0.0075 µM (HepG2 [23]): 71.6%
Activity (HepG2 [24]): Active
